# Experimental data: article PMC8799717, “Pharmacological targeting PIKfyve and tubulin as an effective treatment strategy for double-hit lymphoma” (Cell Death Discovery, 2022)
# Assays:
# KIT = KIT (Homo sapiens, UniProt P10721); assay: KINOMEscan competition binding, single dose […]; conditions: read-out: % of control at 1 μM
# RAF1 = RAF1 (Homo sapiens, UniProt P04049); assay: KINOMEscan competition binding, single dose […]; conditions: read-out: % of control at 1 μM
# [1] = biological target: T1, ABL1(F317I)-nonphosphorylated (Homo sapiens, UniProt P00519, F317I); assay: biochemical; parameters: KINOMEscan active-site-directed competition binding panel, 468 kinases, percent of DMSO control at 1 uM; conditions: KINOMEscan binding, percent of DMSO control; read-out: Ctrl%
# T1 construct: nonphosphorylated
# EPHB4 = EPHB4 (Homo sapiens, UniProt P54760); assay: biochemical; parameters: KINOMEscan active-site-directed competition binding panel, 468 kinases, percent of DMSO control at 1 uM; conditions: KINOMEscan binding, percent of DMSO control; read-out: Ctrl%
# EPHB6 = EPHB6 (Homo sapiens, UniProt O15197); assay: biochemical; parameters: KINOMEscan active-site-directed competition binding panel, 468 kinases, percent of DMSO control at 1 uM; conditions: KINOMEscan binding, percent of DMSO control; read-out: Ctrl%
# GCN2(Kin.Dom.2,S808G) = biological target: T2, GCN2(Kin.Dom.2,S808G) (Homo sapiens, UniProt Q9P2K8, S808G); assay: biochemical; parameters: KINOMEscan active-site-directed competition binding panel, 468 kinases, percent of DMSO control at 1 uM; conditions: KINOMEscan binding, percent of DMSO control; read-out: Ctrl%
# T2 construct: gene EIF2AK4; Kin.Dom.2
# KIT(V559D,V654A) = KIT(V559D,V654A) (Homo sapiens, UniProt P10721, V559D/V654A); assay: biochemical; parameters: KINOMEscan active-site-directed competition binding panel, 468 kinases, percent of DMSO control at 1 uM; conditions: KINOMEscan binding, percent of DMSO control; read-out: Ctrl%
# MEK1 = biological target: T3, MEK1 (Homo sapiens, UniProt Q02750); assay: biochemical; parameters: KINOMEscan active-site-directed competition binding panel, 468 kinases, percent of DMSO control at 1 uM; conditions: KINOMEscan binding, percent of DMSO control; read-out: Ctrl%
# T3 construct: gene MAP2K1
# PFTAIRE2 = biological target: T4, PFTAIRE2 (Homo sapiens, UniProt Q96Q40); assay: biochemical; parameters: KINOMEscan active-site-directed competition binding panel, 468 kinases, percent of DMSO control at 1 uM; conditions: KINOMEscan binding, percent of DMSO control; read-out: Ctrl%
# T4 construct: gene CDK15
# YSK1 = biological target: T5, YSK1 (Homo sapiens, UniProt O00506); assay: biochemical; parameters: KINOMEscan active-site-directed competition binding panel, 468 kinases, percent of DMSO control at 1 uM; conditions: KINOMEscan binding, percent of DMSO control; read-out: Ctrl%
# T5 construct: gene STK25
# T5 sequence (O00506 whole entry): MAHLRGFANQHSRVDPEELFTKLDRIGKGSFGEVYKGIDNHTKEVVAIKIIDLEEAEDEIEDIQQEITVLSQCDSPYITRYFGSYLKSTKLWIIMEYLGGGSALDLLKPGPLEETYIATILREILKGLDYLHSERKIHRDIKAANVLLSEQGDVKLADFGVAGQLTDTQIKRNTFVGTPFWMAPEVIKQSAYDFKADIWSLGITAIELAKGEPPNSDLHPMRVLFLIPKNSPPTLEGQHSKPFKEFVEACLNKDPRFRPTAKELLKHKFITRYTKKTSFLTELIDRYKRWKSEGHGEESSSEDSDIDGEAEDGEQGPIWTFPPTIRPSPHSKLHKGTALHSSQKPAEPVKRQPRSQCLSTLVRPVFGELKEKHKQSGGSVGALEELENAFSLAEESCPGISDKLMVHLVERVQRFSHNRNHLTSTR
# T2 sequence (Q9P2K8 whole entry S808G): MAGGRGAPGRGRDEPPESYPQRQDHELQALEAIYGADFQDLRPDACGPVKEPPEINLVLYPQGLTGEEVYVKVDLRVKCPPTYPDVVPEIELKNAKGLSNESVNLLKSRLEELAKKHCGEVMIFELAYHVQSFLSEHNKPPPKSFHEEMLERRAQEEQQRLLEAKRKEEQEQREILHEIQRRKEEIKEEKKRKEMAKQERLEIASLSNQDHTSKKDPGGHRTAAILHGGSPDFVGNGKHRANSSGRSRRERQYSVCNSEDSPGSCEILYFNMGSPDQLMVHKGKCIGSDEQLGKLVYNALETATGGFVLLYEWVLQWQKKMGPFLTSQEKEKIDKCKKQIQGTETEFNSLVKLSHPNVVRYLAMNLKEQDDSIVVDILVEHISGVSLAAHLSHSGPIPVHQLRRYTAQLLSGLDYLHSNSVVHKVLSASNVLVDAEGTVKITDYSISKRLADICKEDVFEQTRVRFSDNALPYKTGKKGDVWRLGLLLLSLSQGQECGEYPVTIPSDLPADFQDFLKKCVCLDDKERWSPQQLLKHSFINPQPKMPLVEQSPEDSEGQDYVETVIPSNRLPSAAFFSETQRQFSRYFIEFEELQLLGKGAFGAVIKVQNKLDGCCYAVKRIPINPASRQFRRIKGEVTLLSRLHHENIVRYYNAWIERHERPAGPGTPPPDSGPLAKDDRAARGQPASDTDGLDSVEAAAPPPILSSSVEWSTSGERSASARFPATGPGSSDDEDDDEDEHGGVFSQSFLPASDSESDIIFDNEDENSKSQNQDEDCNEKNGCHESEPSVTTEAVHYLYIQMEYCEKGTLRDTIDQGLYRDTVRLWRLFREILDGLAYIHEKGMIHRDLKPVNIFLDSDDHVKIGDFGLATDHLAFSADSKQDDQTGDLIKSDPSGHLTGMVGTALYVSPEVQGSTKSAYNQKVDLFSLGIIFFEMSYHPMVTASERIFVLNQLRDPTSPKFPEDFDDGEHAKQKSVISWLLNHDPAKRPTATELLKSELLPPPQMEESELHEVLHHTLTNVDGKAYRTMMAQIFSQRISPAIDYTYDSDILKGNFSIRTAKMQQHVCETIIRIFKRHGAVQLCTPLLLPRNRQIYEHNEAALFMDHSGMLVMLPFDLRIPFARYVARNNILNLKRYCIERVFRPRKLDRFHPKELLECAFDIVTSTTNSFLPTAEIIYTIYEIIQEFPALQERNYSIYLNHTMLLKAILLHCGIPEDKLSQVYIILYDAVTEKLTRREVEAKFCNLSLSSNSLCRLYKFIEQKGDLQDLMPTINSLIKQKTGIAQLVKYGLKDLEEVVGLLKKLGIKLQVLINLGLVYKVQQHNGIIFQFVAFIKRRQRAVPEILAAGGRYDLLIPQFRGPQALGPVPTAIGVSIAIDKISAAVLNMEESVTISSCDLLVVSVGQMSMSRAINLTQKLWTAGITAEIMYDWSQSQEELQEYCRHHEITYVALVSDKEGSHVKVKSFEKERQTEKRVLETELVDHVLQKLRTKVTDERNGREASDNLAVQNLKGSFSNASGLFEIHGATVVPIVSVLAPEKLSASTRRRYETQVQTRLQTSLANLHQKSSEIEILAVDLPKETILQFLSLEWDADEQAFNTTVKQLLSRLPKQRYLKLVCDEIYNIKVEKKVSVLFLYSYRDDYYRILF
# Chain of EPHB6 (O15197 whole entry): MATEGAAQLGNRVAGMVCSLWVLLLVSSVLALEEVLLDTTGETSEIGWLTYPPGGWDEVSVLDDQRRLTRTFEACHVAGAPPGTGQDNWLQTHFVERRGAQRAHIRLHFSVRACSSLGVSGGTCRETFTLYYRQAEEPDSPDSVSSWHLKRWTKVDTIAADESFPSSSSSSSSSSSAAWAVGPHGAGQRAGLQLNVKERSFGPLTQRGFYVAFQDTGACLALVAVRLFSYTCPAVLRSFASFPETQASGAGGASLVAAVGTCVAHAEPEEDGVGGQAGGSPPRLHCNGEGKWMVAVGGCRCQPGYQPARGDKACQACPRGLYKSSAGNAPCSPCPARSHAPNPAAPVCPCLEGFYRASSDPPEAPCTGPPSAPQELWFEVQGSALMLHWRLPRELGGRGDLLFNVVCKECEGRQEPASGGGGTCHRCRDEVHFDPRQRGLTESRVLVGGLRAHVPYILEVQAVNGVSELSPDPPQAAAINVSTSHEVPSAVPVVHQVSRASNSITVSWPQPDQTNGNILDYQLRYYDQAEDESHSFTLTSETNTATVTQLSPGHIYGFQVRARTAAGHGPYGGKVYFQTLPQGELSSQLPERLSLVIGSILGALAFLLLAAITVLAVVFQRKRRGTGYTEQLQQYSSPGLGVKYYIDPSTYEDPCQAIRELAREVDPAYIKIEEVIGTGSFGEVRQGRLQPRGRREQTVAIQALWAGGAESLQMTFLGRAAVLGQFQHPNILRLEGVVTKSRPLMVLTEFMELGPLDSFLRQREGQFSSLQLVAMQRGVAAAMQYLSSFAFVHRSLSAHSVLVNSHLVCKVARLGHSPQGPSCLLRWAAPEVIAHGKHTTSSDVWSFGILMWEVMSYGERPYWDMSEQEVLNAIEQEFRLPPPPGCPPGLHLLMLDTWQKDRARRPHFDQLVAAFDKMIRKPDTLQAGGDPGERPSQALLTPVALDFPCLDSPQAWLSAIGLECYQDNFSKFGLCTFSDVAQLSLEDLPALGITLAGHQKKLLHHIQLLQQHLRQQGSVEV
# Chain of KIT (P10721 26-976): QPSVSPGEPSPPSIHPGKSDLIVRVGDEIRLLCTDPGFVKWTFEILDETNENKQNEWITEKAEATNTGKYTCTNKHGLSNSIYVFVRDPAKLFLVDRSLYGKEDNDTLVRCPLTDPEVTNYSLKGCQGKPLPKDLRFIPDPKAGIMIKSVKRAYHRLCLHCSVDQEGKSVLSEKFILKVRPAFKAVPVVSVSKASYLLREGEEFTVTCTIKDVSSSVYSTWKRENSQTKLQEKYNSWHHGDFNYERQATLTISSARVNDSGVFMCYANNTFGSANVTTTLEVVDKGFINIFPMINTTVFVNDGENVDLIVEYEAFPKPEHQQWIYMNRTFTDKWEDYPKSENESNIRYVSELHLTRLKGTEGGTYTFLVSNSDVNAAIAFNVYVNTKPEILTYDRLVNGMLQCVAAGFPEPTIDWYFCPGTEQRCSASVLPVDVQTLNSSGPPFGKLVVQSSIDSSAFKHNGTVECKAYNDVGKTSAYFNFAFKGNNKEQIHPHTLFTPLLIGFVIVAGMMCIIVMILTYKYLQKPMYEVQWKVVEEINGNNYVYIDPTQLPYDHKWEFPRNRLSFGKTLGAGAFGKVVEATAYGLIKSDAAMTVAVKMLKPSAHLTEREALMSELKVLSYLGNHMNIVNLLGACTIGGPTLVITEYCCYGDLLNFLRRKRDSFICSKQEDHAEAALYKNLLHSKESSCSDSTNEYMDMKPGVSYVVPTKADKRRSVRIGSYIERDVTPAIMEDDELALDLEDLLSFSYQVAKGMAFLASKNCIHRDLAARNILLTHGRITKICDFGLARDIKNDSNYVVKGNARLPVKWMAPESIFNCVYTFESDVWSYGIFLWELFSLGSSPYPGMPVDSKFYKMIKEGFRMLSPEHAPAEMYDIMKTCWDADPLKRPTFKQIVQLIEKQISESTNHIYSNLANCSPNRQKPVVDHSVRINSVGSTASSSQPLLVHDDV
# Chain of RAF1 (P04049 whole entry): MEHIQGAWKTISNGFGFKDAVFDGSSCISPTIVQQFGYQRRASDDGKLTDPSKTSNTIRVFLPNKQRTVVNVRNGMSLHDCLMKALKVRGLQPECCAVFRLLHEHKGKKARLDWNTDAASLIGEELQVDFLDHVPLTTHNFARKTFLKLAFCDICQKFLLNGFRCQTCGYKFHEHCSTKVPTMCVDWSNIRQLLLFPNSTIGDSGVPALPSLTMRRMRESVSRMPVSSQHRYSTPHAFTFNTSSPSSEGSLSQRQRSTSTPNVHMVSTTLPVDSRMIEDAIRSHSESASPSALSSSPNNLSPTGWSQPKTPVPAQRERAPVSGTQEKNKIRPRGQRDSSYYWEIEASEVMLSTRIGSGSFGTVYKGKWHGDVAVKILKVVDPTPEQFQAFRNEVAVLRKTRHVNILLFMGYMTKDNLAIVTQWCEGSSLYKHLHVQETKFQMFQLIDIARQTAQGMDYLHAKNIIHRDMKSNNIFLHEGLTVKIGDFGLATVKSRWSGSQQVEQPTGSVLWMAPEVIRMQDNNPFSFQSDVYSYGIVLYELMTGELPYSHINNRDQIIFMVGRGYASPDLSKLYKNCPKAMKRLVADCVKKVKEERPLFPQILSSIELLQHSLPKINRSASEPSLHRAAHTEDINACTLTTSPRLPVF
# T3 sequence (Q02750 whole entry): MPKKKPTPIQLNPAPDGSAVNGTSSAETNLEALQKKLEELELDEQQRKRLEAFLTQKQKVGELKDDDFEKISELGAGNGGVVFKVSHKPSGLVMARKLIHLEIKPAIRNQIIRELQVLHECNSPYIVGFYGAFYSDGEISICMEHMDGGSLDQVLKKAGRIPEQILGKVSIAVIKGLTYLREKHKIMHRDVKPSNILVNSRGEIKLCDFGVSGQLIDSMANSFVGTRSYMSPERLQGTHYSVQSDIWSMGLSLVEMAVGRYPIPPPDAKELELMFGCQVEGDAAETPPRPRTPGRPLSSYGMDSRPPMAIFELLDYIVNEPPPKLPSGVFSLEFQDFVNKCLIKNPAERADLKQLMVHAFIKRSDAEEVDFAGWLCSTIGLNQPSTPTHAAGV
structure (smiles),measurement,setting,value
Cc1ccc(NC(=O)c2cccc(C(F)(F)F)c2)cc1Nc1cc(-c2cccnc2)nc2[nH]ccc12 [HZX-02-059],remaining binding at 1 µM,KIT,1.2%
same,remaining binding at 1 µM,RAF1,0.95%
same,remaining binding at 1 µM,[1],40%
same,remaining binding at 1 µM,EPHB4,30%
same,remaining binding at 1 µM,EPHB6,42%
same,remaining binding at 1 µM,"GCN2(Kin.Dom.2,S808G)",100%
same,remaining binding at 1 µM,"KIT(V559D,V654A)",61%
same,remaining binding at 1 µM,MEK1,100%
same,remaining binding at 1 µM,PFTAIRE2,81%
same,remaining binding at 1 µM,YSK1,94%
